Measurements reported in PubChem BioAssay AID1963830 (Molecular Pharmacology Branch, DTP, NCI, 2024).

System: 922993-354-T-J3-PDC complex spheroid viability
Assay: Anticancer human tumor 922993-354-T-J3-PDC patient-derived endometrial carcinoma cell line growth inhibition [POLQ]
Settings: for IC50: curve of first compound; for viability, T/C: stronger effect = lower value
Protocol: Multicellular complex tumor spheroid response to Polymerase (POL) inhibitors (novobiocin, ART-558, RP6685) in combination with a variety of drugs and investigational agents in selected tumor cell lines
The POL inhibitors (novobiocin, ART-558, and RP6685) were evaluated both individually and in combination with standard of care and investigational anticancer small molecules within a complex spheroid model of solid tumors. . Complex spheroids include a stromal component modeled by human endothelial cells (HUVEC) and fibroblasts modeled by human mesenchymal stem cells (MSCs). The concentration ranges selected for each drug and investigational agent were based upon clinically achievable concentrations if the clinical Cmax of the agent was known.
Compounds. The drugs and investigational agents: novobiocin (NSC847541), ART-558 (NSC835418), RP-6685 (NSC848927), peposertib (NSC802822), ceralasertib (NSC780249), elimusertib (NSC800525), camonsertib (NSC841442), AZD-1390 (NSC803789), olaparib (NSC753686), talazoparib (NSC767125), rucaparib (NSC756644), sotorasib (NSC818433), MRTX-1133 (NSC836407), SN-38 (NSC673596), topotecan (NSC609699), epotoside (NSC141540), doxorubicin (NSC123127), gemcitabine (NSC613327), 5-fluorouracil (NSC19893), paclitaxel (NSC125973), vemurafenib (NSC761431), MSA-2 (NSC828583), SN-011 (NSC837082), adavosertib (NSC754352), prexasertib (NSC758257), carboplatin (NSC241240) and oxaliplatin (NSC266046), were obtained from the National Cancer Institute (NCI) Developmental Therapeutics Program Chemical Repository (21). The FDA-approved anticancer drug set is available from the Developmental Therapeutics Program at https://dtp.cancer.gov/organization/dscb/obtaining/. […] The stock solutions were prepared in dimethyl sulfoxide (DMSO, Sigma-Aldrich, St. Louis, MO, cat. D2650), except for the platinum compounds which were prepared in saline (Quality Biological, Gaithersburg, MD, cat. 114-055-101), at 800-fold the tested concentration and stored at -70 degrees C prior to their use. All drugs and investigational agents were tested over a range starting from a high concentration at or near the clinical Cmax and decreasing in half-log increments. If the clinical Cmax for an agent had not been determined, the highest concentration tested was 10 microM, except for SN-38, which was tested at a high concentration of 1 microM.
Cell Culture. All cells were maintained in an incubator at 37 degrees C and 5% CO2 with 95% humidity. The PDC lines were cultured according to standard operating procedures established by the NCI PDMR (https://pdmr.cancer.gov). Table 3 of the manuscript, lists the cell lines along with the number of the three cell types plated to form the mct-spheroids and media for tumor cell growth. After thawing, all PDC lines, except 997537-175-T-J1-PDC and 415267-285-R-J2-PDC, were cultured in Matrigel-coated flasks prepared with a working solution of 1X Ham's F-12 nutrient mix, without supplementation (Thermo Fisher Scientific, cat. 11765054), 100 U/mL penicillin-streptomycin (Thermo Fisher Scientific, cat. 15140122), and 2.5% Matrigel (Corning Inc., Corning, NY, cat. 354248) for the first three passages. The two PDC lines 997537-175-T-J1-PDC and 415267-285-R-J2-PDC were cultured on uncoated flasks. The 857933-349-R-J2-PDC line was cultured in 6C/Colon 1B media containing advanced DMEM/F-12 (Thermo Fisher Scientific, cat. 12634028), 10 mM HEPES (Thermo Fisher Scientific, cat. 15630080), 1X GlutaMAX supplement (Thermo Fisher Scientific, cat. 35050061), 0.1 mg/mL primocin (InvivoGen, San Diego, CA, cat. ant-pm-2), 10% defined fetal bovine serum, heat inactivated (HyClone Laboratories Inc., Logan, UT, cat. SH30070.03HI), 50% L-WRN conditioned media (ATCC, cat. CRL-3276), 1.25 mM N-Acetyl-L-cysteine (Sigma-Aldrich, cat. A9165), 10 mM nicotinamide (Sigma-Aldrich, cat. N0636), 1X B-27 supplement (Thermo Fisher Scientific, cat. 17504044), 1X N-2 supplement (Thermo Fisher Scientific, cat. […]

[1] = second compound 0.0316 µM, first compound 0.0316 µM
[2] = second compound 0.0316 µM, first compound 0.1 µM
[3] = second compound 0.0316 µM, first compound 0.316 µM
[4] = second compound 0.0316 µM, first compound 1 µM
[5] = second compound 0.0316 µM, first compound 3.16 µM
[6] = second compound 0.0316 µM, first compound 10 µM
[7] = second compound 0.1 µM, first compound 0.0316 µM
[8] = second compound 0.1 µM, first compound 0.1 µM
[9] = second compound 0.1 µM, first compound 0.316 µM
[10] = second compound 0.1 µM, first compound 1 µM
[11] = second compound 0.1 µM, first compound 3.16 µM
[12] = second compound 0.1 µM, first compound 10 µM
[13] = second compound 0.316 µM, first compound 0.0316 µM
[14] = second compound 0.316 µM, first compound 0.1 µM
[15] = second compound 0.316 µM, first compound 0.316 µM
[16] = second compound 0.316 µM, first compound 1 µM
[17] = second compound 0.316 µM, first compound 3.16 µM
[18] = second compound 0.316 µM, first compound 10 µM
[19] = second compound 1 µM, first compound 0.0316 µM
[20] = second compound 1 µM, first compound 0.1 µM
[21] = second compound 1 µM, first compound 0.316 µM
[22] = second compound 1 µM, first compound 1 µM
[23] = second compound 1 µM, first compound 3.16 µM
[24] = second compound 1 µM, first compound 10 µM
[25] = second compound 3.16 µM, first compound 0.0316 µM
[26] = second compound 3.16 µM, first compound 0.1 µM
[27] = second compound 3.16 µM, first compound 0.316 µM
[28] = second compound 3.16 µM, first compound 1 µM
[29] = second compound 3.16 µM, first compound 3.16 µM
[30] = second compound 3.16 µM, first compound 10 µM
[31] = second compound 10 µM, first compound 0.0316 µM
[32] = second compound 10 µM, first compound 0.1 µM
[33] = second compound 10 µM, first compound 0.316 µM
[34] = second compound 10 µM, first compound 1 µM
[35] = second compound 10 µM, first compound 3.16 µM
[36] = second compound 10 µM, first compound 10 µM
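Note: spheroids exposed to the agents for one week.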
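Throughout, for viability, T/C: 100% = DMSO vehicle control wells.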

Structure (SMILES): CCc1cc2c(N3CCc4c(cc(Cn5ccnc5)cc4-c4cn(C)nc4C(F)(F)F)C3=O)cc(C)nc2c(OC)n1 + COC1C(OC(N)=O)C(O)C(Oc2ccc3c(O)c(NC(=O)c4ccc(O)c(CC=C(C)C)c4)c(=O)oc3c2C)OC1(C)C
- IC50 (second compound 0.0316 µM): > 10000 nM
- IC50 (second compound 0.1 µM): > 10000 nM
- IC50 (second compound 0.316 µM): > 10000 nM
- IC50 (second compound 1 µM): > 10000 nM
- IC50 (second compound 3.16 µM): > 10000 nM
- IC50 (second compound 10 µM): > 10000 nM
- viability, T/C [1]: 113%
- viability, T/C [2]: 98.7%
- viability, T/C [3]: 99.7%
- viability, T/C [4]: 107%
- viability, T/C [5]: 99.8%
- viability, T/C [6]: 80.5%
- viability, T/C [7]: 111%
- viability, T/C [8]: 94.3%
- viability, T/C [9]: 108%
- viability, T/C [10]: 98.1%
- viability, T/C [11]: 104%
- viability, T/C [12]: 88.9%
- viability, T/C [13]: 103%
- viability, T/C [14]: 103%
- viability, T/C [15]: 93.7%
- viability, T/C [16]: 108%
- viability, T/C [17]: 94.1%
- viability, T/C [18]: 88.1%
- viability, T/C [19]: 108%
- viability, T/C [20]: 111%
- viability, T/C [21]: 103%
- viability, T/C [22]: 99.2%
- viability, T/C [23]: 90.2%
- viability, T/C [24]: 82.4%
- viability, T/C [25]: 95.9%
- viability, T/C [26]: 106%
- viability, T/C [27]: 108%
- viability, T/C [28]: 95%
- viability, T/C [29]: 86.2%
- viability, T/C [30]: 80.6%
- viability, T/C [31]: 92.8%
- viability, T/C [32]: 89.1%
- viability, T/C [33]: 87.5%
- viability, T/C [34]: 92.9%
- viability, T/C [35]: 92.4%
- viability, T/C [36]: 74.3%

Structure (SMILES): COc1cccc(OCCCN)c1-c1cc(Nc2cnc(C#N)cn2)n[nH]1 + COC1C(OC(N)=O)C(O)C(Oc2ccc3c(O)c(NC(=O)c4ccc(O)c(CC=C(C)C)c4)c(=O)oc3c2C)OC1(C)C
- IC50 (second compound 0.0316 µM): 204 nM
- IC50 (second compound 0.1 µM): 187 nM
- IC50 (second compound 0.316 µM): 175 nM
- IC50 (second compound 1 µM): 159 nM
- IC50 (second compound 3.16 µM): 159 nM
- IC50 (second compound 10 µM): 160 nM
- viability, T/C (second compound 0.0316 µM, first compound 0.00316 µM): 92.4%
- viability, T/C (second compound 0.0316 µM, first compound 0.01 µM): 94%
- viability, T/C [1]: 94.3%
- viability, T/C [2]: 91%
- viability, T/C [3]: 24.6%
- viability, T/C [4]: 9.14%
- viability, T/C (second compound 0.1 µM, first compound 0.00316 µM): 99.6%
- viability, T/C (second compound 0.1 µM, first compound 0.01 µM): 96.5%
- viability, T/C [7]: 102%
- viability, T/C [8]: 87.2%
- viability, T/C [9]: 18.6%
- viability, T/C [10]: 8.7%
- viability, T/C (second compound 0.316 µM, first compound 0.00316 µM): 100%
- viability, T/C (second compound 0.316 µM, first compound 0.01 µM): 92.2%
- viability, T/C [13]: 97.2%
- viability, T/C [14]: 84.6%
- viability, T/C [15]: 13.6%
- viability, T/C [16]: 9.43%
- viability, T/C (second compound 1 µM, first compound 0.00316 µM): 108%
- viability, T/C (second compound 1 µM, first compound 0.01 µM): 94%
- viability, T/C [19]: 78.9%
- viability, T/C [20]: 75.3%
- viability, T/C [21]: 12.9%
- viability, T/C [22]: 8.85%
- viability, T/C (second compound 3.16 µM, first compound 0.00316 µM): 103%
- viability, T/C (second compound 3.16 µM, first compound 0.01 µM): 110%
- viability, T/C [25]: 95.9%
- viability, T/C [26]: 70%
- viability, T/C [27]: 21.3%
- viability, T/C [28]: 9.8%
- viability, T/C (second compound 10 µM, first compound 0.00316 µM): 90.1%
- viability, T/C (second compound 10 µM, first compound 0.01 µM): 69.7%
- viability, T/C [31]: 80.1%
- viability, T/C [32]: 73.4%
- viability, T/C [33]: 16.1%
- viability, T/C [34]: 8.31%

Structure (SMILES): Nc1ccn(C2OC(CO)C(O)C2(F)F)c(=O)n1 (stereo unspecified) + COC1C(OC(N)=O)C(O)C(Oc2ccc3c(O)c(NC(=O)c4ccc(O)c(CC=C(C)C)c4)c(=O)oc3c2C)OC1(C)C
- IC50 (second compound 0.0316 µM): < 31.6 nM
- IC50 (second compound 0.1 µM): < 31.6 nM
- IC50 (second compound 0.316 µM): < 31.6 nM
- IC50 (second compound 1 µM): < 31.6 nM
- IC50 (second compound 3.16 µM): < 31.6 nM
- IC50 (second compound 10 µM): < 31.6 nM
- viability, T/C [1]: 10.3%
- viability, T/C [2]: 10.7%
- viability, T/C [3]: 10.7%
- viability, T/C [4]: 10.6%
- viability, T/C [5]: 8.5%
- viability, T/C [6]: 8.9%
- viability, T/C [7]: 12.4%
- viability, T/C [8]: 12.8%
- viability, T/C [9]: 10.4%
- viability, T/C [10]: 9.28%
- viability, T/C [11]: 9%
- viability, T/C [12]: 8.97%
- viability, T/C [13]: 11.4%
- viability, T/C [14]: 11.6%
- viability, T/C [15]: 11.5%
- viability, T/C [16]: 8.83%
- viability, T/C [17]: 10.4%
- viability, T/C [18]: 9.46%
- viability, T/C [19]: 11.9%
- viability, T/C [20]: 8.68%
- viability, T/C [21]: 9.63%
- viability, T/C [22]: 10.4%
- viability, T/C [23]: 7.97%
- viability, T/C [24]: 9.31%
- viability, T/C [25]: 12.1%
- viability, T/C [26]: 8.92%
- viability, T/C [27]: 10.3%
- viability, T/C [28]: 10.4%
- viability, T/C [29]: 12.1%
- viability, T/C [30]: 8.3%
- viability, T/C [31]: 8.46%
- viability, T/C [32]: 10.1%
- viability, T/C [33]: 9.42%
- viability, T/C [34]: 8.26%
- viability, T/C [35]: 8.87%
- viability, T/C [36]: 8.43%
